Literature values, collected in patent US20020046426A1, “Application of carbonyl compounds in the process of tanning hides” (RHODIA BRASIL LTDA., priority 1999, published 2002).

How the values were obtained:
mice = conditions: mouse, in vivo, po

In the case of `CC(O)CC=O` (centres unmarked) [aldol, 3-hydroxyl butanal], the LD50 (mice) is given as 2180 mg/kg.

In the case of `C/C=C/C=O` [crotonaldehyde, 2-butenal], the “irritation to the eyes” value (eyes) is given as “extremely irritant to the eyes”.
